Data on 23 compounds can be found in ChEMBL document CHEMBL1909046, “DrugMatrix in vitro pharmacology data”.

For experiment [1], the target named is Receptor tyrosine-protein kinase erbB-2 (Homo sapiens, UniProt P04626). It is filed as cell-based. The following applies: insect cells.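 Note: inhibition of HER2 kinase enzyme activity, measured with Poly(Glu:Tyr) as the phosphorylation substrate; in other assays of this panel Not Active means under 50% inhibition at 10 µM.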
Experiment [2] deals with 5-hydroxytryptamine receptor 2B (Homo sapiens, UniProt P41595). The experiment is classed as cell membranes, CHO-K1, Membrane.
A further experiment concerns the target Acetylcholinesterase (Homo sapiens, UniProt P22303). The experiment in a line: DRUGMATRIX: Acetylcholinesterase enzyme inhibition (substrate: acetylthiocholine). The experiment is classed as cell-based, HEK293. The following applies: hek293; Not Active = under 50% inhibition at 10 µM.
In another experiment the target is Vasopressin V1a receptor (Homo sapiens, UniProt P37288). It is filed as cell membranes, Membrane. The settings on record: hek293. Note: in other assays of this panel Not Active means under 50% inhibition at 10 µM.
In a further experiment the target is T1, Cathepsin G (Homo sapiens, UniProt P08311).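 Note: inhibition of Cathepsin G enzyme activity, tested on an AMC-conjugated peptide substrate; in other assays of this panel Not Active means under 50% inhibition at 10 µM.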
T1 sequence (P08311 whole entry): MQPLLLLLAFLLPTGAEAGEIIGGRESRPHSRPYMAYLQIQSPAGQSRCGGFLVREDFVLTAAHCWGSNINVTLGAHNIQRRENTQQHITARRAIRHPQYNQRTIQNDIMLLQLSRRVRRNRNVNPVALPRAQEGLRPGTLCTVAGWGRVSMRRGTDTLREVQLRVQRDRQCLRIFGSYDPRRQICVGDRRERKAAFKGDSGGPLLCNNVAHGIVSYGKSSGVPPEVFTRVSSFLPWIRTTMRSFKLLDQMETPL
In words: biochemical. The experiment is classed as tissue-based, Neutrophil. The following applies: neutrophil.

The target in experiment [3] is T2, 5-hydroxytryptamine receptor 2C (Homo sapiens, UniProt P28335).
T2 sequence (P28335 whole entry): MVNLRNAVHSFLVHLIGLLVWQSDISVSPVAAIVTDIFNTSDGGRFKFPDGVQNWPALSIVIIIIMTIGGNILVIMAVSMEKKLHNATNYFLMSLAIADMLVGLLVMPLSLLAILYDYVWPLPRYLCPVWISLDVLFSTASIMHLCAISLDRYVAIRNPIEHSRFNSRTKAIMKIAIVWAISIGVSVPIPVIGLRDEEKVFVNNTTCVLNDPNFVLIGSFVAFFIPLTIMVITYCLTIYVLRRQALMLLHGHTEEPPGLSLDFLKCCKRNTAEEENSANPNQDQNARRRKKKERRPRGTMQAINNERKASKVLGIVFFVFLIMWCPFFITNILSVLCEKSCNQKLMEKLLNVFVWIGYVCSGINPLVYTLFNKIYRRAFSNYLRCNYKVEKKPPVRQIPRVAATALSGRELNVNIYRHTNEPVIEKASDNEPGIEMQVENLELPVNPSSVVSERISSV
The experiment in a line: DRUGMATRIX: Serotonin (5-Hydroxytryptamine) 5-HT2C radioligand binding (ligand: [3H] Mesulergine). The experiment is classed as cell membranes, CHO-K1, Membrane. The settings on record: Not Active = under 50% inhibition at 10 µM.

Chain of Vasopressin V1a receptor (P37288 whole entry): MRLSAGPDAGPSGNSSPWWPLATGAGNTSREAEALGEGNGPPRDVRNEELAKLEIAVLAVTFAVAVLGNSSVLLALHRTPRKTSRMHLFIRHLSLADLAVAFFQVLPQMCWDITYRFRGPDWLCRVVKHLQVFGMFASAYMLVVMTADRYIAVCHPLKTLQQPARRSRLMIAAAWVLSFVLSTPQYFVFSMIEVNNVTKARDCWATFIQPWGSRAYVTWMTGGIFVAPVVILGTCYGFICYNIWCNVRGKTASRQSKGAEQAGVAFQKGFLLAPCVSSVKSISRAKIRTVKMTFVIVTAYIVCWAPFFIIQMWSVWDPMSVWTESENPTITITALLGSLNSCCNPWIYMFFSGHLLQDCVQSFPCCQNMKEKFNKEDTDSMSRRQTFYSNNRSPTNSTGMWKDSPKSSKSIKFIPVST
Chain of Acetylcholinesterase (P22303 whole entry): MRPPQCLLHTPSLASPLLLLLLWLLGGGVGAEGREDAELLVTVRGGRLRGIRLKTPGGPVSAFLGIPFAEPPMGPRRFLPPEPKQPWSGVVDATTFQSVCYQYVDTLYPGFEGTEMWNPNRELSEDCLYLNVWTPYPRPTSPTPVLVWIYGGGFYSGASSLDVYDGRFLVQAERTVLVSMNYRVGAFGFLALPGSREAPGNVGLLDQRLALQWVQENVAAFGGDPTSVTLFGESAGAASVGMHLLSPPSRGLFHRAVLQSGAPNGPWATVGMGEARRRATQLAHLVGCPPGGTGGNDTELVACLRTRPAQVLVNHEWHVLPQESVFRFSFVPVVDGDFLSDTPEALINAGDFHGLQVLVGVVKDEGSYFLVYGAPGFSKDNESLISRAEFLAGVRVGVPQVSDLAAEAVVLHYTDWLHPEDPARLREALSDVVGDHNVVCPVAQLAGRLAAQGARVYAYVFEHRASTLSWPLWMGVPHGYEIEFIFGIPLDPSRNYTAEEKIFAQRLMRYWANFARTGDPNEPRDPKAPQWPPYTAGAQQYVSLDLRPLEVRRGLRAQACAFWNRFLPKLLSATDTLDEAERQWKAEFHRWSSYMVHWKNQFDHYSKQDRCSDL
Chain of 5-hydroxytryptamine receptor 2B (P41595 whole entry): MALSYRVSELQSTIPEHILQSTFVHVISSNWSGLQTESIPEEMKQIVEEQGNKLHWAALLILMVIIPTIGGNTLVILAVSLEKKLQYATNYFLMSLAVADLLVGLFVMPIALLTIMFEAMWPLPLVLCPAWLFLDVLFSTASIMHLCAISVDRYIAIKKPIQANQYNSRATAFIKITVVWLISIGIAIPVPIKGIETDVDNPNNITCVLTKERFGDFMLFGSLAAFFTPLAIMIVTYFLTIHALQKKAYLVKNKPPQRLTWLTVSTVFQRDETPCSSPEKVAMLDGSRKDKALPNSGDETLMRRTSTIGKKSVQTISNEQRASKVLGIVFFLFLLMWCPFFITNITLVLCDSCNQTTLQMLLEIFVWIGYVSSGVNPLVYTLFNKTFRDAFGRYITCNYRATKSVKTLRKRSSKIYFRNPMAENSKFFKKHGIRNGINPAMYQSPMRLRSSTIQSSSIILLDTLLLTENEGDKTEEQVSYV

As for `COc1ccc(C[C@H](N)C(=O)N[C@H]2[C@@H](O)[C@H](n3cnc4c(N(C)C)ncnc43)O[C@@H]2CO)cc1` [PUROMYCIN], the half-maximal inhibitory concentration (IC50) result (in experiment [1]; in experiment [2] (cho-k1); against Acetylcholinesterase; against Vasopressin V1a receptor; on Cathepsin G; in experiment [3] (cho-k1)) was “Not Active” each time.

With `NC(=O)NC(=O)Cc1ccccc1` [PHENACEMIDE], the half-inhibitory concentration (IC50) entry (in experiment [1]; in experiment [2] (cho-k1); at Acetylcholinesterase; at Vasopressin V1a receptor; at Cathepsin G; in experiment [3] (cho-k1)) was “Not Active” each time.

Consider `COc1ccccc1OCCNCC(O)COc1cccc2[nH]c3ccccc3c12` (centres undefined) [CARVEDILOL], for which the concentration for half-maximal inhibition (IC50) entry in experiment [1] is “Not Active”; in experiment [2] (read-out: IC50), 23 nM; at Acetylcholinesterase, “Not Active”; against Vasopressin V1a receptor, “Not Active”; against Cathepsin G, “Not Active”; in experiment [3] (read-out: IC50) it was 115 nM. The results for the Ki in experiment [2] (read-out: Ki) and in experiment [3] (read-out: Ki) were 15 nM and 60 nM, respectively.

`c1ccc2c(c1)Nc1ccccc1S2` [PHENOTHIAZINE]: the IC50 entry in experiment [1] is “Not Active”; in experiment [2] (cho-k1), “Not Active”; at Acetylcholinesterase it was “Not Active”; against Vasopressin V1a receptor, “Not Active”; against Cathepsin G, “Not Active”; in experiment [3] (read-out: IC50), 2240 nM. The inhibitory constant (Ki) in experiment [3] (read-out: Ki) is 1170 nM.

With POVIDONE, the IC50 entry (in experiment [1]; in experiment [2] (cho-k1); against Acetylcholinesterase; at Vasopressin V1a receptor; against Cathepsin G; in experiment [3] (cho-k1)) was “Not Active” in each case. In addition, the Ki entry (in experiment [1]; in experiment [2] (cho-k1); at Acetylcholinesterase; at Vasopressin V1a receptor; on Cathepsin G; in experiment [3] (cho-k1)) was “Not Active” in each case.

For `CCO` [ALCOHOL], the half-maximal inhibitory concentration (IC50) result (in experiment [1]; in experiment [2] (cho-k1); at Acetylcholinesterase; at Vasopressin V1a receptor; on Cathepsin G; in experiment [3] (cho-k1)) was “Not Active” in each case.

As to `Clc1cc(Cl)c(OCC#CI)cc1Cl` [HALOPROGIN], the 50% inhibitory concentration (IC50) result is “Not Active” in experiment [1]; “Not Active” in experiment [2] (cho-k1); “Not Active” at Acetylcholinesterase; “Not Active” on Vasopressin V1a receptor; “Not Active” at Cathepsin G; 2600 nM in experiment [3] (read-out: IC50). Moreover, the Ki in experiment [3] (read-out: Ki) came out at 1360 nM.

As for CHROMIC CHLORIDE, the IC50 entry (in experiment [1]; in experiment [2] (cho-k1); on Acetylcholinesterase; on Vasopressin V1a receptor; against Cathepsin G; in experiment [3] (cho-k1)) was “Not Active” in each case. Further, the Ki entry (in experiment [1]; in experiment [2] (cho-k1); at Acetylcholinesterase; on Vasopressin V1a receptor; at Cathepsin G; in experiment [3] (cho-k1)) was “Not Active” each time.

`Nc1ccc(Cc2ccc(N)cc2)cc1`: the IC50 result (in experiment [1]; in experiment [2] (cho-k1); against Acetylcholinesterase; against Vasopressin V1a receptor; against Cathepsin G; in experiment [3] (cho-k1)) was “Not Active” in each case.

For `COc1cc([C@@H]2c3cc4c(cc3[C@H](O)[C@H]3COC(=O)[C@H]23)OCO4)cc(OC)c1OC` [PODOFILOX], the IC50 entry (in experiment [1]; in experiment [2] (cho-k1); against Acetylcholinesterase; on Vasopressin V1a receptor; against Cathepsin G; in experiment [3] (cho-k1)) was “Not Active” in each case.

Turning to `OC[C@H]1OC2C3[C@@H](CO)OC(O[C@H]4[C@H](O)[C@@H](O)[C@@H](O[C@H]5[C@H](O)[C@@H](O)[C@@H](O[C@H]6[C@H](O)[C@@H](O)[C@@H](O[C@H]7[C@H](O)[C@@H](O)[C@@H](O[C@H]8[C@H](O)[C@@H](O)[C@@H](O[C@H]9[C@H](O)[C@@H](O)C(OC1[C@H](O)[C@H]2O)O[C@@H]9CO)O[C@@H]8CO)O[C@@H]7CO)O[C@@H]6CO)O[C@@H]5CO)O[C@@H]4CO)[C@H](O)[C@H]3O`, the half-inhibitory concentration (IC50) result (in experiment [1]; in experiment [2] (cho-k1); on Acetylcholinesterase; on Vasopressin V1a receptor; on Cathepsin G; in experiment [3] (cho-k1)) was “Not Active” throughout.

As to `Nc1ccc(C(=O)O)c(O)c1` [AMINOSALICYLIC ACID], the IC50 result (in experiment [1]; in experiment [2] (cho-k1); at Acetylcholinesterase; at Vasopressin V1a receptor; at Cathepsin G; in experiment [3] (cho-k1)) was “Not Active” in each case.

In the case of `O=c1[nH]cnc2c1ncn2[C@H]1CC[C@@H](CO)O1` [DIDANOSINE], the concentration for half-maximal inhibition (IC50) entry (in experiment [1]; in experiment [2] (cho-k1); on Acetylcholinesterase; on Vasopressin V1a receptor; on Cathepsin G; in experiment [3] (cho-k1)) was “Not Active” each time.

`CCCCCCNC(=O)n1cc(F)c(=O)[nH]c1=O` [CARMOFUR]: the half-maximal inhibitory concentration (IC50) entry (in experiment [1]; in experiment [2] (cho-k1); on Acetylcholinesterase; against Vasopressin V1a receptor; against Cathepsin G; in experiment [3] (cho-k1)) was “Not Active” throughout.

Consider `C#C[C@]1(O)CC[C@H]2[C@@H]3CCC4=CC(=O)CC[C@@H]4[C@H]3CC[C@@]21C` [NORETHINDRONE], for which the half-maximal inhibitory concentration (IC50) entry (in experiment [1]; in experiment [2] (cho-k1); on Acetylcholinesterase; at Vasopressin V1a receptor; against Cathepsin G; in experiment [3] (cho-k1)) was “Not Active” in each case.

Regarding `Cl.NC[C@H]1CC[C@H](C(=O)Oc2ccc(CCC(=O)O)cc2)CC1` [CETRAXATE HYDROCHLORIDE], the IC50 result (in experiment [1]; in experiment [2] (cho-k1); against Acetylcholinesterase; on Vasopressin V1a receptor; at Cathepsin G; in experiment [3] (cho-k1)) was “Not Active” each time.

On to `CC(C)Cn1cnc2c(N)nc3ccccc3c21` [IMIQUIMOD], for which the half-maximal inhibitory concentration (IC50) result (in experiment [1]; in experiment [2] (cho-k1); against Acetylcholinesterase; against Vasopressin V1a receptor; at Cathepsin G; in experiment [3] (cho-k1)) was “Not Active” each time.

Regarding `O=C1CN(/N=C/c2ccc([N+](=O)[O-])o2)C(=O)N1` [NITROFURANTOIN], the IC50 entry (in experiment [1]; in experiment [2] (cho-k1); on Acetylcholinesterase; on Vasopressin V1a receptor; on Cathepsin G; in experiment [3] (cho-k1)) was “Not Active” in each case.

With `Cc1c(N)nc([C@H](CC(N)=O)NC[C@H](N)C(N)=O)nc1C(=O)N[C@H](C(=O)N[C@H](C)[C@@H](O)[C@H](C)C(=O)N[C@H](C(=O)NCCc1nc(-c2nc(C(=O)NCCC[S+](C)C)cs2)cs1)[C@@H](C)O)[C@@H](O[C@@H]1O[C@@H](CO)[C@@H](O)[C@H](O)[C@@H]1O[C@H]1O[C@H](CO)[C@@H](O)[C@H](OC(N)=O)[C@@H]1O)c1c[nH]cn1.[Br-]` [BLEOMYCIN A2], the half-inhibitory concentration (IC50) result (in experiment [1]; in experiment [2] (cho-k1); at Acetylcholinesterase; on Vasopressin V1a receptor; on Cathepsin G; in experiment [3] (cho-k1)) was “Not Active” each time.

In the case of `CC(C)Cc1ccc([C@H](C)C(=O)O)cc1` [DEXIBUPROFEN], the concentration for half-maximal inhibition (IC50) entry (in experiment [1]; in experiment [2] (cho-k1); against Acetylcholinesterase; against Vasopressin V1a receptor; at Cathepsin G; in experiment [3] (cho-k1)) was “Not Active” each time.

Turning to `NS(=O)(=O)c1cc(C(=O)O)c(NCc2ccco2)cc1Cl` [FUROSEMIDE], the half-inhibitory concentration (IC50) result (in experiment [1]; in experiment [2] (cho-k1); at Acetylcholinesterase; at Vasopressin V1a receptor; against Cathepsin G; in experiment [3] (cho-k1)) was “Not Active” throughout.

In the case of `C[C@H]1C[C@H]2[C@@H]3CCC4=CC(=O)C=C[C@]4(C)[C@@]3(F)[C@@H](O)C[C@]2(C)[C@@]1(O)C(=O)CO` [BETAMETHASONE], the half-inhibitory concentration (IC50) result (in experiment [1]; in experiment [2] (cho-k1); on Acetylcholinesterase; against Vasopressin V1a receptor; at Cathepsin G; in experiment [3] (cho-k1)) was “Not Active” in each case.

In the case of `COC(=O)C[C@](O)(CCC(C)(C)O)C(=O)O[C@@H]1C(OC)=C[C@]23CCCN2CCc2cc4c(cc2[C@H]13)OCO4` [HARRINGTONINE], the 50% inhibitory concentration (IC50) entry (in experiment [1]; in experiment [2] (cho-k1); against Acetylcholinesterase; at Vasopressin V1a receptor; against Cathepsin G; in experiment [3] (cho-k1)) was “Not Active” throughout.
